Patent US12364786B2, “Polymer particles” (Terumo Corporation, priority 2016, dated 2025)

Assay: In vitro elution of pharmaceutical agents from particles (Sotax USP 4 dissolution apparatus, HPLC)
Assay type: physicochemical
Protocol: For in vitro elution testing, drug was loaded on 1 mL samples of microspheres of approximately 400±100 micron diameter. Microsphere aliquots were loaded with 37.5 mg of doxorubicin in water or 50 mg of irinotecan in citrate buffer. Samples were incubated for 18 hours. Drug was eluted from the samples in a Sotax USP 4 dissolution apparatus. Samples were taken at incremental time intervals and analyzed by high performance liquid chromatography. Peak area was recorded (FIG. 4). Percent and concentration of drug eluted were calculated for each time interval.

[1] = 1 mL microsphere sample (approximately 400±100 micron diameter) loaded with 50 mg irinotecan in citrate buffer
[2] = 1 mL microsphere sample (approximately 400±100 micron diameter) loaded with 37.5 mg doxorubicin in water

amount of drug eluted over the first day [1] | percent of drug eluted over the first day [1] [%] | amount of drug eluted over the first day [2] [mg] | percent of drug eluted over the first day [2] [%] | SMILES
over 45 mg | 95 | – | – | CCc1c2c(nc3ccc(OC(=O)N4CCC(N5CCCCC5)CC4)cc13)-c1cc3c(c(=O)n1C2)COC(=O)[C@]3(O)CC [irinotecan]
– | – | 24.5 | 65 | COc1cccc2c1C(=O)c1c(O)c3c(c(O)c1C2=O)C[C@@](O)(C(=O)CO)C[C@@H]3O[C@H]1C[C@H](N)[C@H](O)[C@H](C)O1 [doxorubicin]
